Assay results reported in DBAASP.
In brackets after ≈: the same amount, converted by molar mass.

Assays:
Assay in all cases: ≥ marks a high value that may be exact or a test limit, other limits are often not marked, values filed in µg/mL are converted to µM
[1] = test system: Klebsiella pneumoniae ATCC 27799
Pseudomonas aeruginosa = test system: Pseudomonas aeruginosa
[2] = test system: Proteus vulgaris ICB 9081
Escherichia coli O157:H7 = test system: Escherichia coli O157:H7
[3] = test system: Salmonella typhimurium CMCC 50115
[4] = test system: Bacillus subtilis ATCC 63501
[5] = test system: Escherichia coli ATCC 25922 ΔsbmA
[6] = test system: Klebsiella pneumoniae 57 USA
[7] = test system: Acinetobacter baumannii M17
[8] = test system: Enterobacter cloacae Ha185
[9] = test system: Pseudomonas aeruginosa Pa4216
[10] = test system: Acinetobacter baumannii ICB 14073
[11] = test system: Escherichia coli DSM 1103
[12] = test system: Enterobacter cloacae Ha088
[13] = test system: Acinetobacter baumannii Ab5755
[14] = test system: Pseudomonas aeruginosa Pa1409
[15] = test system: Staphylococcus aureus Sa1390
[16] = test system: Enterobacter cloacae 34654
Escherichia coli JJ2487 = test system: Escherichia coli JJ2487
[17] = test system: Acinetobacter baumannii ICB 9250
[18] = test system: Klebsiella pneumoniae ATCC 10031
[19] = test system: Salmonella typhimurium SL1344
[20] = test system: Escherichia coli ATCC 25922
[21] = test system: Pseudomonas aeruginosa ATCC 27853
Escherichia coli MC1061 = test system: Escherichia coli MC1061
[22] = test system: Enterobacter cloacae Ha89
[23] = test system: Pseudomonas aeruginosa Walter
[24] = test system: Shigella dysenteriae CMCC 51252
[25] = test system: Acinetobacter baumannii ICB 14072
[26] = test system: Shigella flexneri CMCC 51572
[27] = test system: Enterobacter cloacae Ha089
Escherichia coli BL21AI = test system: Escherichia coli BL21AI
[28] = test system: Acinetobacter baumannii ICB 14067
[29] = test system: Acinetobacter baumannii Ab5753
[30] = test system: Stenotrophomonas sp. ICB 308054
[31] = test system: Salmonella enterica subsp. enterica serovar Enteritidis MH91989

MIC [1]: 0.418 µM (≈ 1 µg/mL)
MIC (Pseudomonas aeruginosa): 1.18 µM (≈ 2.83 µg/mL)
MIC [2]: 1.67 µM (≈ 4 µg/mL)
MIC (Escherichia coli O157:H7): 1.31 µM (≈ 3.14 µg/mL)
MIC [3]: 8 µM (≈ 19.1 µg/mL)
MIC [4]: ≥ 512 µM
MIC [5]: 16 µM (≈ 38.2 µg/mL)
MIC [6]: 0.105 µM (≈ 0.25 µg/mL)
MIC [7]: 0.418 µM (≈ 1 µg/mL)
MIC [8]: 0.209 µM (≈ 0.5 µg/mL)
MIC [9]: ≥ 53.5 µM
MIC [10]: 0.837 µM (≈ 2 µg/mL)
MIC [11]: 3.35 µM (≈ 8 µg/mL)
MIC [12]: 0.0523 µM (≈ 0.125 µg/mL)
MIC [13]: ≥ 53.5 µM
MIC [14]: ≥ 53.5 µM
MIC [15]: ≥ 53.5 µM
MIC [16]: 0.105 µM (≈ 0.25 µg/mL)
MIC (Escherichia coli JJ2487): 0.251 µM (≈ 0.6 µg/mL)
MIC [17]: 0.209 µM (≈ 0.5 µg/mL)
MIC [18]: 4 µM (≈ 9.56 µg/mL)
MIC [19]: 0.251 µM (≈ 0.6 µg/mL)
MIC [20]: 8 µM (≈ 19.1 µg/mL)
MIC [21]: 1.67 µM (≈ 4 µg/mL)
MIC (Escherichia coli MC1061): 0.126 µM (≈ 0.3 µg/mL)
MIC [22]: 0.105 µM (≈ 0.25 µg/mL)
MIC [23]: 3.35 µM (≈ 8 µg/mL)
MIC [24]: 8 µM (≈ 19.1 µg/mL)
MIC [25]: 0.418 µM (≈ 1 µg/mL)
MIC [26]: 8 µM (≈ 19.1 µg/mL)
MIC [27]: 0.0523 µM (≈ 0.125 µg/mL)
MIC (Escherichia coli BL21AI): 1.67 µM (≈ 4 µg/mL)
MIC [28]: 0.418 µM (≈ 1 µg/mL)
MIC [29]: ≥ 53.5 µM
MIC [30]: 13.4 µM (≈ 32 µg/mL)
MIC [31]: 0.251 µM (≈ 0.6 µg/mL)
SMILES: CC[C@H](C)[C@H](NC(=O)[C@H](CCCN=C(N)N)NC(=O)[C@H](CCCN=C(N)N)NC(=O)[C@@H]1CCCN1C(=O)[C@@H]1CCCN1C(=O)[C@H](CCCN=C(N)N)NC(=O)[C@@H]1CCCN1C(=O)[C@H](CCCN=C(N)N)NC(=O)[C@@H]1CCCN1C(=O)[C@H](CC(C)C)NC(=O)[C@H](Cc1ccc(O)cc1)NC(=O)[C@@H]1CCCN1C(=O)[C@@H]1CCCN1C(=O)[C@H](CCCCN)NC(=O)[C@H](CC(=O)O)NC(=O)[C@@H](N)C(C)C)C(=O)N[C@@H](Cc1ccc(O)cc1)C(=O)N[C@@H](CC(N)=O)C(=O)N[C@@H](CCCN=C(N)N)C(N)=O [VDKPPYLPRPRPPRRIYNR]
